In patent publication US20240132498A1, “CRYSTALLINE FORMS OF 5-(3,4-DIFLUOROBENZYL)-8-((1R,4R)-4-METHYLCYCLOHEXYL)-6,9-DIOXO-2,5,8-TRIAZASPIRO[3.5]NONANE-2-CARBALDEHYDE” (Cytokinetics, Incorporated, priority 2022, published 2024):
Entries after “also recorded” stand apart in the source; their conditions may differ.

Key:
[1] = Dog cassette dosing IV pharmacokinetics; assay type: in vivo; conditions: plasma, male beagle dogs
Procedure: Non-naïve male beagle dogs (8 months to 3 years of age, body weight 8-14 kg) sourced from Jiangsu Johnsen Bioresource CO. and/or Beijing Rixinkeji CO., LTD and/or Beijing Marshall Biotechnology CO., LTD were used in this study. All animals for IV administration had free access to food and water. The IV dose solution was prepared in 10% DMA/50% PG/40% HP0CD solution (40% w/v aqueous HP0CD) at a concentration of 0.2 mg/mL. Concentrations of IV dose was measured at the end of the study. PK parameters were calculated using the nominal dose values if the measured values were within 20% of the nominal values. Blood samples were collected by venipuncture of peripheral veins except the dosing vein at pre-dose, 5 15, 30 min, 1, 2, 4, 6, 8 and 24 h post-dose. Blood samples were centrifuged and resultant plasma was frozen for bioanalysis. Plasma samples were stored at −80° C. before analysis. Plasma samples were analyzed for compound concentrations using the LC/MS/MS method. Briefly, a 50 p L aliquot of each plasma sample was mixed with 100 μL of acetonitrile that contained an internal standard. The mixture was vortexed and centrifuged. Ten (10) μL of the resulting solution was injected onto a reverse-phase C18 column and the resultant peaks detected on a LC/MS/MS equipped with a turbo ionspray ionization source. Sample concentrations below the limit of quantification (BLQ) were treated as zero for PK calculations. […] The elimination rate constant (k) was calculated as the absolute value of the slope of the linear regression of logarithm (log) of the concentration versus time for the last three data points of the concentration-time profiles. Apparent elimination half-life (t½) values were calculated as 1n(2)/k. […] AUC values were calculated from the dosing time to the last measurable concentration. AUC∞ values were calculated as the sum of the corresponding AUC and the ratio of the last detectable concentration divided by k. Plasma clearance (CL) was calculated from Dose/AUC.. […] Vss was calculated from MRT∞×CL. Maximum concentration (Cmax) and time to reach Cmax (tmax) were recorded as observed. […]

[2] = Monkey cassette dosing IV pharmacokinetics; assay type: in vivo; conditions: male, plasma
[3] = Stability of Form II in solvents after 24 hours (HPLC); assay type: physicochemical; conditions: for Form II Peak Area T = 24 hours: 24 hours at ambient (25° C.); for Form II Peak Area: initial injection; for Visual Observations (signs of degradation in chromatograms): initial vs T = 24 hours;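 on Form II Peak Area T = 24 hours: same diluted solubility sample reinjected at the initial injection volume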
From the text: The chromatograms were then overlayed and visual signs of degradation were noted, i.e., loss of compound 1 peak area or increase of other peaks in the chromatography.

[4] = Competitive slurry experiments between Form I and Form II; assay type: physicochemical; conditions: competitive slurries of a mechanical mixture of Form I and Form II, range of temperatures (5-50)
From the text: The results of the competitive slurry experiments are provided below in Table 6.

C[C@H]1CC[C@H](N2CC(=O)N(Cc3ccc(F)c(F)c3)C3(CN(C=O)C3)C2=O)CC1 [Compound 1, 5-(3,4-difluorobenzyl)-8-((1r,4r)-4-methylcyclohexyl)-6,9-dioxo-2,5,8-triazaspiro[3.5]nonane-2-carbaldehyde]
clearance [1]: 5.12 mL/min/kg
half-life [1]: 11.8 h
Vd ([1]; read-out: Vss): 4.48 L/kg
clearance [2]: 13.1 mL/min/kg
half-life [2]: 8.69 h
Vd ([2]; read-out: Vss): 8.8 L/kg

C[C@H]1CC[C@H](N2CC(=O)N(Cc3ccc(F)c(F)c3)C3(CN(C=O)C3)C2=O)CC1 [Form II, 5-(3,4-difluorobenzyl)-8-((1r,4r)-4-methylcyclohexyl)-6,9-dioxo-2,5,8-triazaspiro[3.5]nonane-2-carbaldehyde]
Form II Peak Area T = 24 hours ([3]; 2-BuOH): 35.2
Form II Peak Area ([3]; 2-BuOH): 35.3
Visual Observations (signs of degradation in chromatograms) ([3]; 2-BuOH): No sign of degradation
Form II Peak Area T = 24 hours ([3]; 2-Me-THF): 51.5
Form II Peak Area ([3]; 2-Me-THF): 51.7
Visual Observations (signs of degradation in chromatograms) ([3]; 2-Me-THF): No sign of degradation
Form II Peak Area T = 24 hours ([3]; Acetone): 167.7
Form II Peak Area ([3]; Acetone): 166.0
Visual Observations (signs of degradation in chromatograms) ([3]; Acetone): no visual signs of further degradation; also recorded: No sign of degradation
Form II Peak Area T = 24 hours ([3]; DI Water): 10.8
Form II Peak Area ([3]; DI Water): 10.8
Visual Observations (signs of degradation in chromatograms) ([3]; DI Water): No sign of degradation
Form II Peak Area T = 24 hours ([3]; DMSO): 194.2
Form II Peak Area ([3]; DMSO): 193.2
Visual Observations (signs of degradation in chromatograms) ([3]; DMSO): no visual signs of further degradation; also recorded: No sign of degradation
Form II Peak Area T = 24 hours ([3]; EtOH): 54.7
Form II Peak Area ([3]; EtOH): 53.1
Visual Observations (signs of degradation in chromatograms) ([3]; EtOH): did not appear to degrade further; also recorded: Late eluting impurity peak, present
Form II Peak Area T = 24 hours ([3]; IPA): 30.5
Form II Peak Area ([3]; IPA): 30.3
Visual Observations (signs of degradation in chromatograms) ([3]; IPA): No sign of degradation
Form II Peak Area T = 24 hours ([3]; Isopropyl acetate): 66.3
Form II Peak Area ([3]; Isopropyl acetate): 66.6
Visual Observations (signs of degradation in chromatograms) ([3]; Isopropyl acetate): did not seem to degrade further; also recorded: Impurities eluting after compound 1
Form II Peak Area T = 24 hours ([3]; MIBK): 85.1
Form II Peak Area ([3]; MIBK): 85.1
Visual Observations (signs of degradation in chromatograms) ([3]; MIBK): No sign of degradation
Form II Peak Area T = 24 hours ([3]; MeCN): 190.4
Form II Peak Area ([3]; MeCN): 188.0
Visual Observations (signs of degradation in chromatograms) ([3]; MeCN): no visual signs of further degradation; also recorded: No sign of degradation
Form II Peak Area T = 24 hours ([3]; MeOH): 202.1
Form II Peak Area ([3]; MeOH): 199.0
Visual Observations (signs of degradation in chromatograms) ([3]; MeOH): no visual signs of further degradation; also recorded: No sign of degradation
Form II Peak Area T = 24 hours ([3]; THF): 177.4
Form II Peak Area ([3]; THF): 177.3
Visual Observations (signs of degradation in chromatograms) ([3]; THF): no visual signs of further degradation; also recorded: No sign of degradation
Form II Peak Area T = 24 hours ([3]; Tert-Butylmetyl ether): 24.7
Form II Peak Area ([3]; Tert-Butylmetyl ether): 24.2
Visual Observations (signs of degradation in chromatograms) ([3]; Tert-Butylmetyl ether): Large impurity peak eluting after
Form II Peak Area T = 24 hours ([3]; Toluene): 40.5
Form II Peak Area ([3]; Toluene): 41.2
Visual Observations (signs of degradation in chromatograms) ([3]; Toluene): No sign of degradation
relative thermodynamic stability of Form I and Form II [4]: most stable form
